After the bases stand the sugars from the 5' end (letter, count) and the backbone: PS all phosphorothioate, else s phosphorothioate and o phosphodiester by linkage. Methylation of C is not given here. l = locked nucleic acid (LNA); d = 2'-deoxy (DNA)
Target: SNHG14
Details: ASO

Sequence | target mRNA inhibition (Human Neuronal Cell, 0.2 µM) [%] | target mRNA inhibition (Human Neuronal Cell, 1 µM) [%] | target mRNA inhibition (Human Neuronal Cell, 7.5 µM) [%] | other results
CACCTGATAACAGACC (sugars l3 d10 l3, PS) | -22 | 7 | – | target mRNA inhibition (Human Neuronal Cell, 5 µM): 27%
TTCTGTATACACCATCCC (sugars ldlddddddddddlddll, PS) | – | – | 63 | –
CATCATATTGAACCAA (sugars l2 d10 l4, PS) | 52 | 63 | – | –
CACAATCAACAACAAATA (sugars l4 d12 l2, PS) | 40 | 54 | – | –
TTATACCTTTCTTTAACCCT (sugars ldlddddddddddlddddll, PS) | – | – | 60 | –
ATATTGATTCAATTCCC (sugars l1 d1 l2 d8 l5, PS) | – | – | 64 | –
TTATAGCCATTCTATCT (sugars l3 d10 l1 d1 l2, PS) | – | – | 59 | –
TATTGATTCAATTCCCT (sugars lldldddddddddldll, PS) | – | – | 69 | –
TTTATACCTTTCTTTAACCC (sugars l1 d12 l1 d4 l2, PS) | – | – | 17 | –
GCAACATTATTAACCACCT (sugars lddddlddddddldddlll, PS) | – | – | 42 | –
GTTCTACTATACTTTCCTC (sugars lddddddddddddldldll, PS) | – | – | 56 | –
TTTCCATTTATTTCCATTT (sugars l4 d13 l2, PS) | 47 | 56 | – | –
AGCTTTTAACCAGAGTGG (sugars l1 d14 l3, PS) | – | – | 66 | –
TCATCCCTCCAAGAAA (sugars l4 d10 l2, PS) | -12 | -17 | – | target mRNA inhibition (Human Neuronal Cell, 5 µM): -46%
ATGCTCACACTAATTA (sugars l4 d10 l2, PS) | 35 | 48 | – | –
TTATAGCCATTCTATCT (sugars l1 d1 l1 d10 l4, PS) | – | – | 55 | –
GCCACAACATCTATTT (sugars l4 d10 l2, PS) | 37 | 38 | – | –
CTTCCCTTTGATAACAT (sugars l3 d11 l3, PS) | 20 | 43 | – | –
AATTTTTTTCTTACTATCTT (sugars lddddldddddddldldlll, PS) | – | – | 50 | –
ATCTCATGACCACCTAA (sugars l3 d10 l1 d1 l2, PS) | – | – | 60 | –
TACTCTGCAATACACC (sugars l3 d11 l2, PS) | – | – | 55 | –
GATCATTCTCAACAATTA (sugars l2 d3 l1 d6 l6, PS) | – | – | 33 | –
TTAAGCTTTCACCTAT (sugars l2 d10 l4, PS) | 37 | 54 | – | –

Sequence | target mRNA inhibition (Human Neuronal Cell, 0.2 µM) [%] | target mRNA inhibition (Human Neuronal Cell, 1 µM) [%] | target mRNA inhibition (Human Neuronal Cell, 7.5 µM) [%] | other results
TTCTGTATACACCATCC (sugars l1 d12 l4, PS) | – | – | 51 | –
ACTAATGCAATAACCC (sugars l3 d10 l3, PS) | 45 | 28 | – | –
TTTATCAATATCTTCTCAC (sugars l4 d12 l3, PS) | – | – | 70 | –
AGATCATTCTCAACAATTA (sugars ldddllddddddldlddll, PS) | – | – | 62 | –
TTACACTTAATTATACTTCC (sugars lddlldldddddddddddll, PS) | – | – | 68 | –
ATCTTTCCATTTATTTCCAT (sugars l1 d16 l3, PS) | – | – | 15 | –
TTTATCAATATCTTCTCAC (sugars lddlllddddddddlddll, PS) | – | – | 63 | –
AGTTCTACTATACTTTC (sugars l2 d1 l2 d10 l2, PS) | – | – | 58 | –
TTTATACCTTTCTTTAACCC (sugars lddldddddddddlddddll, PS) | – | – | 53 | –
TTTACTGTCAACTCCT (sugars l2 d10 l4, PS) | 51 | 57 | – | –
TGAAACATTCTTCCCAC (sugars l2 d12 l3, PS) | 11 | 13 | – | –
TTCTACTATACTTTCCTCT (sugars ldldddddddddlddddll, PS) | – | – | 59 | –
AAATTATTTATACACCATCA (sugars l1 d12 l3 d1 l3, PS) | – | – | 40 | –
ATCTTTCCATTTATTTCCA (sugars lddlddddddddddlddll, PS) | – | – | 44 | –
ACAACTATTATCTTCT (sugars l3 d10 l3, PS) | 40 | 57 | – | –
ATTTTTTTCTTACTATCTTC (sugars llddldldddddddldddll, PS) | – | – | 49 | –
CCATTTATTTCCATTTATTT (sugars lddlldldddddddddddll, PS) | – | – | 40 | –
AGTTCTACTATACTTTC (sugars l1 d2 l2 d8 l4, PS) | – | – | 57 | –
AAAATTATTTATACACCATC (sugars lldddldddddddldlllll, PS) | – | – | 55 | –
GATCATTCTCAACAATTAA (sugars lllllddddddddldldll, PS) | – | – | 5 | –
TTATAGCCATTCTATCT (sugars lldldddddddldddll, PS) | – | – | 59 | –
TAAAATTATTTATACACCAT (sugars lllldllddddddlllldll, PS) | – | – | -13 | –
AGATCATTCTCAACAATT (sugars l2 d1 l3 d10 l2, PS) | – | – | 46 | –

Sequence | target mRNA inhibition (Human Neuronal Cell, 0.2 µM) [%] | target mRNA inhibition (Human Neuronal Cell, 1 µM) [%] | target mRNA inhibition (Human Neuronal Cell, 7.5 µM) [%] | other results
ATCTCATGACCACCTAA (sugars ldlddddddddlddlll, PS) | – | – | 52 | –
TCTCCAACATAGATCCT (sugars l4 d11 l2, PS) | 33 | 46 | – | –
AAATTATTTATACACCATCA (sugars ldlddldddddddldlldll, PS) | – | – | 60 | –
TTATAGCCATTCTATCT (sugars ldldlddddddlddlll, PS) | – | – | 37 | –
TTTCTGACTCCCTATCC (sugars l2 d13 l2, PS) | 25 | 14 | – | –
CTACAAATTCAATTTACT (sugars l2 d12 l4, PS) | 3 | 10 | – | –
TTGATTCAATTCCCTTA (sugars ldldlddddddddldll, PS) | – | – | 59 | –
GATCATTCTCAACAATT (sugars l2 d1 l2 d7 l5, PS) | – | – | 25 | –
CTCATACTTGCTTTAAT (sugars l4 d11 l2, PS) | 7 | 13 | – | target mRNA inhibition (Human Neuronal Cell, 5 µM): 26%; target mRNA inhibition (Mouse Primary Neuronal Cell, 0.005 µM): 96.4%
TTCTGTATACACCATCC (sugars lddldddddddddldll, PS) | – | – | 57 | –
CCTATGTTAATACTTTC (sugars l4 d11 l2, PS) | 35 | 47 | – | –
TTTTATACCTTTCTTTAACC (sugars l1 d14 l1 d2 l2, PS) | – | – | 21 | –
TTATAGCCATTCTATCT (sugars lldldddddddldldll, PS) | – | – | 26 | –
ATCTCATGACCACCTAA (sugars ldldddddddddldlll, PS) | – | – | 61 | –
AAAATCTCAACTACCATTT (sugars ldldllddddddddlllll, PS) | – | – | 31 | –
ACTGTTTATACCCTTTC (sugars l4 d11 l2, PS) | 43 | 51 | – | –
AGCAACATTATTAACCAC (sugars l2 d10 l2 d1 l3, PS) | – | – | 44 | –
GTATTTACTCTTTACCT (sugars l3 d11 l3, PS) | 41 | 35 | – | –
TGTTTATACCCTTTCCAA (sugars l1 d12 l2 d1 l2, PS) | – | – | 58 | –
CATTATATTTAAACTATCA (sugars l4 d13 l2, PS) | 8 | 15 | – | –
CTTTCCATTTATTTCCATTT (sugars ldddldldddddddddddll, PS) | – | – | 53 | –
GATCATTCTCAACAATT (sugars l5 d7 l1 d2 l2, PS) | – | – | 34 | –
TTATACCTTTCTTTAACCCT (sugars l1 d5 l1 d11 l2, PS) | – | – | 59 | –

Sequence | target mRNA inhibition (Human Neuronal Cell, 0.2 µM) [%] | target mRNA inhibition (Human Neuronal Cell, 1 µM) [%] | target mRNA inhibition (Human Neuronal Cell, 7.5 µM) [%] | other results
CAGCTTTTAACCAGAGTGGC (sugars l1 d17 l2, PS) | – | – | 40 | –
CACCACTGATTTCCTT (sugars l3 d10 l3, PS) | 43 | 53 | – | –
GTTTCCATCTACTATTAAT (sugars lddddlddddddllddlll, PS) | – | – | 59 | –
TACTCTGCAATACACCA (sugars l1 d1 l1 d12 l2, PS) | – | – | 55 | –
ATTTTTTTCTTACTATCTTC (sugars ldlddldddddddddddlll, PS) | – | – | 56 | –
ATTTCATTAAGTCACCC (sugars l3 d11 l3, PS) | 51 | 53 | – | –
ATCCTATGTTAATACT (sugars l4 d10 l2, PS) | 14 | 33 | – | –
TACACAATCAACAACAAAT (sugars l4 d13 l2, PS) | 25 | 41 | – | –
GATCATTCTCAACAATTA (sugars l2 d1 l2 d10 l3, PS) | – | – | 57 | –
TTCCATTTATTTCCATTTAT (sugars ldddlddddddddddlldll, PS) | – | – | 55 | –
TCTCAAAGATCATTCT (sugars l4 d10 l2, PS) | 54 | 62 | – | –
TTTCCTCTGCTTATAAC (sugars l4 d11 l2, PS) | 34 | 56 | – | –
GTTCTACTATACTTTCCT (sugars lddldddddddddlddll, PS) | – | – | 58 | –
TTGATTCAATTCCCTTA (sugars ldddlddddddldldll, PS) | – | – | 48 | –
TTTCCATTTATTTCCATTT (sugars lldlddddddddddlldll, PS) | – | – | 53 | –
TTTATCAATATCTTCTCACT (sugars ldldddddddddddldddll, PS) | – | – | 39 | –
TTACACTTAATTATACTTCC (sugars ldddldldddddddllddll, PS) | – | – | 62 | –
CATCTGCTACATATTCT (sugars l4 d11 l2, PS) | 53 | 62 | – | –
AACAACTCATGCCACA (sugars l2 d10 l4, PS) | 53 | 59 | – | –
TTTATCAATATCTTCTCA (sugars l3 d2 l1 d9 l3, PS) | – | – | 65 | –
GTTTATACCCTTTCCAAT (sugars ldldldddddddddldll, PS) | – | – | 57 | –

Reference: the OligoGym collection
